# Literature values in US6620433B2, “Dispersible and soluble galenic paracetamol formulation, method for its preparation and its applications” (Laboratorios Belmac, S.A., priority 2000, dated 2003).
# Columns and labels:
# mice = settings: interperitoneal administration
smiles,measurement,setting,value
"CC(=O)Nc1ccc(O)cc1 [Paracetamol, N-(4-hydroxyphenyl) acetamide]",LD50 in mice,mice,500 mg/kg
same,solubility in cold water,cold water,barely soluble
same,solubility in ether,ether,barely soluble
same,"solubility in methanol, ethanol, dimethylformamide, ethylene dichloride, acetone and ethyl acetate",organic solvents,soluble
same,"solubility in petroleum ether, pentane and benzene","petroleum ether, pentane, benzene",practically insoluble
